Consider 1 compound from patent publication US20170313974A1, “Modulation of Tissue Fatty Acid Composition of a Host by Human Gut Bacteria” (University College Cork, National University of Ireland, priority 2007, published 2017).

What all share (type): in vivo
For assay [1], the system named is Myeloperoxidase (MPO) activity in colonic homogenates. As to the kind of experiment: Colonic mucosal myeloperoxidase (MPO) activity in SCID mice with colitis. To be noted: 10 weeks, mean ± SD, n = 8. How it is done:
(§1) Materials and Methods Severe Combined Immuno Deficient (SCID) mice were used in this study, which had been induced with colitis through adoptive transfer of splenic CD4^+ CD45RB^high T cells from BALB/c mice. […] Ten weeks after colitis induction, cytokine production by splenocytes was measured in vitro by ELISA, myeloperoxidase (MPO) activity was determined in colonic homogenates and fatty acid composition in liver, adipose tissue, cecum and colon was determined by gas liquid chromatography (GLC). Similar studies have also been conducted in pigs (data not shown here) and similar results obtained.
(§2) SCID mice were purchased from Harlan ltd. (Briester, Oxon, UK) at 6 weeks of age and fed a normal diet for 1 week to stabilize all metabolic conditions. Each cage contained one mouse. Mice were exposed to a 12-h light:dark cycle and maintained at a constant temperature of 25° C. One week after arrival, mice were divided into five groups for different dietary treatments (Table I).
SCID mice were induced with colitis through adoptive transfer of the CD4^+ CD45RB^high subpopulation of CD4+ T cells from normal BALB/c mice (Mackay et al. 1998). […]
Myeloperoxidase activity was measured according to the method by Krawisz et al. (24). […] The absorbance (OD) was measured spectrophotometrically at 450 nm at 1 min intervals for 15 min. […] Results are expressed as U/mg protein.

Assay [2] deals with splenocytes. Description: Cytokine production by stimulated splenocytes of fed SCID mice with colitis. The following applies: compared to control. How it is done:
as §1
Cytokine production in response to defined stimuli, in vitro, was measured using enzyme-linked immunosorbent assay (ELISA). Splenocyte isolation was performed using an erythrocyte lysing kit (R&D Systems). The spleens of all mice were removed at the time of sacrifice, blotted on filter paper and weighed. Each spleen was immediately placed in Hanks' buffer containing 10% fetal calf serum. The spleen was teased apart and sieved through a cell strainer into a 50 ml centrifuge tube. Cells were centrifuged for 10 minutes at 200 g. The cells were resuspended in 2 ml M-lyse buffer, which lyses red blood cells, and incubated for 8 minutes at room temperature. Lysis was deactivated using wash buffer and the cell suspension was centrifuged for 10 minutes at 200 g. Cells were resuspended in DMEM (10% fetal calf serum, 1% Pen/Strep, Sigma) and diluted to 1×10^6 cells/ml for in vitro culturing. The isolated lymphocytes were cocultured with the proinflammatory bacterium Salmonella typhimurium UK1 (1×10^6 cells/ml) and with antiCD3-antiCD28 monoclonal antibodies for 48 hours at 37° C. Cell supernatants were isolated and stored at −80° C. Cytokine analysis was performed on the supernatants using a BD™ Cytometric Bead Array (CBA) Mouse Inflammation Kit (BD Biosciences, US).

The test system of assay [3] is SCID mice. As to the kind of experiment: Tissue fatty acid composition, SCID mouse colitis feeding study (10 weeks). The procedure: as §1, §2
For linoleic acid and c9t11 CLA treatment, a powdered diet blended with the drug was administered for 10 weeks to yield a dose of drug at approximately 90 mg/day/mouse (this is based on preliminary experiments by Bassaganya-Riera et al. (22) that established an optimal dose of fatty acids of 1 g/100 g of diet).
After the adoptive transfer, mice were weighed three times a week and examined for clinical signs of disease associated with colitis (ie. rectal bleeding, diarrhoea and rectal prolapse). After 10 weeks on experimental diets, the mice were sacrificed by cervical dislocation. Livers, adipose tissue, spleens, colons and cecums were removed from the carcasses, blotted dry on filter paper, weighed and frozen in liquid nitrogen. All samples were stored at −80° C. until processed. The colon was divided into different sections for MPO activity and fatty acid composition.
(§3) Lipids were extracted with Chloroform:Methanol 2:1 v/v according to Folch et al. (25). Briefly, tissue or faecal samples, ˜1 g liver, 300 mg small intestine, 200 mg adipose tissue, 250 mg colon, 800 mg cecum or 100 mg feaces were homogenised in over a 25 fold excess of CHCl3:CH3OH (2:1 v/v) and washed with 0.88% KCl solution. Excess solvent was dried down under a gentle stream of N2 at 40° C. and lipids were stored at −20° C. in 1 ml chloroform. Fatty acid methyl esters (FAME) were prepared using first 10 ml 0.5N NaOH in methanol for 10 min at 90° C. followed by 10 ml 14% BF3 in methanol for 10 min at 90° C. (26). FAME was recovered with hexane. Prior to GC analysis samples were dried over 0.5 g of anhydrous sodium sulphate for an hour and stored at −20° C. FAME were separated by gas liquid chromatography (GLC Varian 3400, Varian, Walnut Creek, Calif. USA fitted with a flame ionization detector) using a Chrompack CP Sil 88 column (Chrompack, Middleton, The Netherlands, 100 m×0.25 mm i.d., 0.20 μm film thickness) and He as a carrier gas. The column oven was programmed to be held initially at 80° C. for 8 minutes then increased 8.5° C./min to a final column temperature of 200° C. The injection volume used was 0.6 μl with automatic sample injection with a splitless on SPI on-column temperature programmable injector. Data was recorded and analysed on a Minichrom PC system (VG Data System, Manchester, U.K.). Tri-heptadecanoate (Sigma) was used as an internal standard, and peaks were identified with reference to retention times of fatty acids in a standard mixture. All fatty acid results are shown as mean±SD (n=8) g/100 g FAME.

For assay [4], the system named is BALB/c mice. As to the kind of experiment: Tissue and faecal fatty acid composition, BALB/c LA feeding trial (8 weeks). How it is done:
Male BALB/c mice were purchased from Harlan Ltd. (Briester, Oxon, UK). One week after arrival, these mice were divided into two groups (n=9) for different dietary treatments. […] Group B received 1% LA in their diet. For LA treatment, a powdered diet blended with the drug was administered for 8 weeks to yield a dose of drug at approximately 90 mg/day/mouse (this is based on preliminary experiments by Bassaganya-Riera et al. (1) that established an optimal dose of fatty acids of 1 g/100 g).
After 8 weeks on experimental diets, the mice were sacrificed by cervical dislocation. Livers, hearts, colons, small intestines and cecums were removed from the carcasses, blotted dry on filter paper, weighed and frozen in liquid nitrogen. All samples were stored at −80° C. until processed.
as §3

As for `CCCCC/C=C\C/C=C\CCCCCCCC(=O)O` [LA, linoleic acid], the MPO colon in assay [1] turned out to be 1.16 ± 0.23 U/mg protein. Also, in assay [2], the proinflammatory cytokines entry is given as “no reduction”. In addition, the “c9, t11 CLA in cecum digesta” value in assay [3] (cecum digesta, mean ± SD, n = 8) is 0.08 ± 0.02^ g/100 g FAME. For the same compound, the “c9, t11 CLA in faeces” value in assay [3] (faeces) is listed as 0.09 g/100 g FAME; in assay [4] (faeces harvested after 8 weeks), 0.35±0.25 g/100 g FAME. For the same compound, the “c9, t11 CLA in liver” value in assay [3] (liver, mean ± SD, n = 8) was 0.01 ± 0.01^2 g/100 g FAME; in assay [4] (liver, 8 weeks), 0.05±0.03 g/100 g FAME. The compound also yielded an LA in faeces in assay [4] (faeces after 8 weeks) of 27.4±7.16. For the same compound, the “c9, t11 CLA in large intestine” value in assay [4] (large intestine, 8 weeks) came to 0.07±0.02 g/100 g FAME. For the same compound, the “c9, t11 CLA in small intestine” value in assay [4] (small intestine, 8 weeks) turned out to be 0.03±0.01.
